Data taken from patent publication US20180320217A1, “METHODS FOR SAMPLING AND MEASURING ORAL LAVAGE PROTEINS” (The Procter & Gamble Company, priority 2017, published 2018).
Values joined by “and” are separate entries in the source; they are usually repeats but may differ in a detail not shown here. Equal entries are not always repeated. “Also recorded” adds a separate entry of the source.

What was measured:
Malate dehydrogenase = molecular target: T1, Malate dehydrogenase (Sus scrofa, UniProt P00346); assay: Formation of formazan dyes: Malate dehydrogenase and 1-Methoxy PMS, absence of malate (TABLE 17); type: biochemical, pig heart; design: L-malate dehydrogenase (pig heart); purchased Sigma-Aldrich 10127248001 / 10127914001
T1 sequence (P00346 25-338): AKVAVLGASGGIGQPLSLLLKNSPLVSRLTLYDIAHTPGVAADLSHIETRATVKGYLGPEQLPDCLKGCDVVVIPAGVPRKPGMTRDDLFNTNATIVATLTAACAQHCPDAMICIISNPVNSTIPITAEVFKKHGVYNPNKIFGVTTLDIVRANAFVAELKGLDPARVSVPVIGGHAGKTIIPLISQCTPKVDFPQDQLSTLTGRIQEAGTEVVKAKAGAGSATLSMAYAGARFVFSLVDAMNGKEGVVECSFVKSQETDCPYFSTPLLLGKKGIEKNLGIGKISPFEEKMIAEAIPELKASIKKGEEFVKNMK

oral lavage [1] = assay: Formation of formazan dyes: oral lavage and 1-Methoxy PMS, absence of malate (TABLE 19); type: biochemical, human; settings: disodium salt
oral lavage [2] = assay: Formation of formazan dyes: oral lavage and diaphorase, not malate (TABLE 11); type: biochemical, human
[3] = Formation of formazan dyes: NADH, malate and 1-methoxy PMS (TABLE 16); type: biochemical
oral lavage [4] = assay: Formation of formazan dyes: oral lavage, malate and diaphorase (TABLE 12); type: biochemical, human; settings: oral lavage, malate and diaphorase
diaphorase [5] = assay: Formation of formazan dyes: only diaphorase and malate (TABLE 14); type: biochemical, Clostridium kluyveri; settings: mean of three experiments
[6] = Formation of formazan dyes: control buffer, malate and 1-Methoxy PMS (TABLE 22); type: biochemical
diaphorase [7] = assay: Formation of formazan dyes: only diaphorase, not malate (TABLE 13); type: biochemical, Clostridium kluyveri; settings: mean of three experiments
diaphorase [8] = assay: Formation of formazan dyes: NADH, diaphorase and malate (TABLE 8); type: biochemical, Clostridium kluyveri; settings: NADH, diaphorase and malate
diaphorase [9] = assay: Effect of concentrations of tetrazolium salts on formation of formazan dyes (FIGS. 4A-4G); type: biochemical; settings: 15 mM NADH+H, 20 μg diaphorase, pH 7.5; FIGS. 4A to 4G
Description: On the idea that higher concentrations of tetrazolium salts in the assay buffer would likely result in more formazan dyes in the reaction, various concentrations of tetrazolium salts were added to a reaction buffer and the formation of formazan dyes were measured at 0, 30 and 60 minutes. […] The reactions were performed at room temperature. Absorbance was taken at 0, 30 and 60 minutes.

[10] = tested on: Malate dehydrogenase and diaphorase; assay: Formation of formazan dyes: Malate dehydrogenase and diaphorase, absence of malate (TABLE 9); type: biochemical, pig heart
diaphorase [11] = assay: Formation of formazan dyes: NADH and diaphorase, absence of malate (TABLE 7); type: biochemical, Clostridium kluyveri; settings: NADH and diaphorase, absence of malate
[12] = Formation of formazan dyes: control buffer and 1-Methoxy PMS, absence of malate (TABLE 21); type: biochemical; settings: disodium salt
[13] = Formation of formazan dyes: NADH and 1-methoxy PMS, absence of malate (TABLE 15); type: biochemical; settings: disodium salt
[14] = tested on: Malate dehydrogenase and diaphorase; assay: Formation of formazan dyes: Malate dehydrogenase, diaphorase and malate (TABLE 10); type: biochemical, pig heart

COc1cc(-c2ccc(-[n+]3nc(-c4ccc(C(=O)N(CCS(=O)(=O)[O-])CCS(=O)(=O)[O-])cc4)nn3-c3nc4ccccc4s3)c(OC)c2)ccc1-[n+]1nc(-c2ccc(C(=O)N(CCS(=O)(=O)[O-])CCS(=O)(=O)[O-])cc2)nn1-c1nc2ccccc2s1.[Na+].[Na+] [WST-5, 2,2′-Dibenzothiazolyl-5,5′-bis[4-di(2-sulfoethyl)carbamoylphenyl]-3,3′-(3,3′-dimethoxy 4,4′-biphenylene)ditetrazolium, disodium salt]
reduction by malate dehydrogenase alone (Malate dehydrogenase): did not catalyze the reduction | Absorbance, formation of formazan dyes (Means) (Malate dehydrogenase; disodium salt): 0.24 and 0.37 and 0.41 and 0.43 | Absorbance, formation of formazan dyes (Means) (oral lavage [1]): 0.77 and 1.11 and 1.29 and 1.39 | Formation of formazan dyes, absorbance, Means 0 h (oral lavage [2]; oral lavage and diaphorase, not malate, 0 h): 0.60 | Formation of formazan dyes, absorbance, Means 1 h (oral lavage [2]; oral lavage and diaphorase, not malate, 1 h): 0.72 | Formation of formazan dyes, absorbance, Means 2 h (oral lavage [2]; oral lavage and diaphorase, not malate, 2 h): 0.77 | Formation of formazan dyes, absorbance, Means 3 h (oral lavage [2]; oral lavage and diaphorase, not malate, 3 h): 0.80 | Formation of formazan dyes, absorbance, Means 4 h (oral lavage [2]; oral lavage and diaphorase, not malate, 4 h): 0.78 | Formation of formazan dyes, absorbance, Means 6 h (oral lavage [2]; oral lavage and diaphorase, not malate, 6 h): 0.83 | Formation of formazan dyes, absorbance, Means 8 h (oral lavage [2]; oral lavage and diaphorase, not malate, 8 h): 0.84 | Formation of formazan dyes, absorbance, Means 10 h (oral lavage [2]; oral lavage and diaphorase, not malate, 10 h): 0.81 | Formation of formazan dyes, absorbance, Means 12 h (oral lavage [2]; oral lavage and diaphorase, not malate, 12 h): 0.80 | reduction to formazan dyes by pooled oral lavage (oral lavage [2]; pooled oral lavage of high bleeder group, diaphorase, no added malate (TABLE 11)): partially reduced to formazan dyes | Absorbance, formation of formazan dyes (Means) [3]: 1.84 | Formation of formazan dyes, absorbance, Means 0 h (oral lavage [4]; 0 h): 0.57 | Formation of formazan dyes, absorbance, Means 1 h (oral lavage [4]; 1 h): 0.74 | Formation of formazan dyes, absorbance, Means 2 h (oral lavage [4]; 2 h): 0.80 | Formation of formazan dyes, absorbance, Means 3 h (oral lavage [4]; 3 h): 0.75 | Formation of formazan dyes, absorbance, Means 4 h (oral lavage [4]; 4 h): 0.67 | Formation of formazan dyes, absorbance, Means 6 h (oral lavage [4]; 6 h): 0.85 | Formation of formazan dyes, absorbance, Means 8 h (oral lavage [4]; 8 h): 0.90 | Formation of formazan dyes, absorbance, Means 10 h (oral lavage [4]; 10 h): 1.02 | Formation of formazan dyes, absorbance, Means 12 h (oral lavage [4]; 12 h): 1.08 | Absorbance, formation of formazan dyes (Means) (diaphorase [5]; 0 h): 0.09 | Absorbance, formation of formazan dyes (Means) (diaphorase [5]; 1 h): 0.12 | Absorbance, formation of formazan dyes (Means) (diaphorase [5]; 2 h): 0.15 | Absorbance, formation of formazan dyes (Means) (diaphorase [5]; 3 h): 0.18 | Absorbance, formation of formazan dyes (Means) (diaphorase [5]; 4 h): 0.21 | Absorbance, formation of formazan dyes (Means) (diaphorase [5]; 6 h): 0.23 | Absorbance, formation of formazan dyes (Means) (diaphorase [5]; 8 h): 0.26 | Absorbance, formation of formazan dyes (Means) (diaphorase [5]; 10 h): 0.29 | Absorbance, formation of formazan dyes (Means) (diaphorase [5]; 12 h): 0.32 | Means absorbance 0 h [6]: 0.13 | Means absorbance 1 h [6]: 0.15 | Means absorbance 2 h [6]: 0.16 | Means absorbance 3 h [6]: 0.16 | Absorbance, formation of formazan dyes (Means) (diaphorase [7]; 0 h): 0.25 | Absorbance, formation of formazan dyes (Means) (diaphorase [7]; 1 h): 0.30 | Absorbance, formation of formazan dyes (Means) (diaphorase [7]; 2 h): 0.35 | Absorbance, formation of formazan dyes (Means) (diaphorase [7]; 3 h): 0.32 | Absorbance, formation of formazan dyes (Means) (diaphorase [7]; 4 h): 0.32 | Absorbance, formation of formazan dyes (Means) (diaphorase [7]; 6 h): 0.38 | Absorbance, formation of formazan dyes (Means) (diaphorase [7]; 8 h): 0.41 | Absorbance, formation of formazan dyes (Means) (diaphorase [7]; 10 h): 0.38 | Absorbance, formation of formazan dyes (Means) (diaphorase [7]; 12 h): 0.36 | Formation of formazan dyes, absorbance, Means 0 h (diaphorase [8]; 0 h): 2.62 | Formation of formazan dyes, absorbance, Means 1 h (diaphorase [8]; 1 h): 2.48 | Formation of formazan dyes, absorbance, Means 2 h (diaphorase [8]; 2 h): 2.44 | Formation of formazan dyes, absorbance, Means 3 h (diaphorase [8]; 3 h): 2.41 | Formation of formazan dyes, absorbance, Means 4 h (diaphorase [8]; 4 h): 2.45 | Formation of formazan dyes, absorbance, Means 6 h (diaphorase [8]; 6 h): 2.41 | Formation of formazan dyes, absorbance, Means 8 h (diaphorase [8]; 8 h): 2.36 | Formation of formazan dyes, absorbance, Means 10 h (diaphorase [8]; 10 h): 2.31 | Formation of formazan dyes, absorbance, Means 12 h (diaphorase [8]; 12 h): 2.26 | concentration of tetrazolium salt at which absorbance reached peaks (diaphorase [9]): 1 mM | Formation of formazan dyes, absorbance, Means 0 h ([10]; Malate dehydrogenase and diaphorase, absence of malate, 0 h): 0.83 | Formation of formazan dyes, absorbance, Means 1 h ([10]; Malate dehydrogenase and diaphorase, absence of malate, 1 h): 1.35 | Formation of formazan dyes, absorbance, Means 2 h ([10]; Malate dehydrogenase and diaphorase, absence of malate, 2 h): 1.58 | Formation of formazan dyes, absorbance, Means 3 h ([10]; Malate dehydrogenase and diaphorase, absence of malate, 3 h): 1.74 | Formation of formazan dyes, absorbance, Means 4 h ([10]; Malate dehydrogenase and diaphorase, absence of malate, 4 h): 1.86 | Formation of formazan dyes, absorbance, Means 6 h ([10]; Malate dehydrogenase and diaphorase, absence of malate, 6 h): 2.06 | Formation of formazan dyes, absorbance, Means 8 h ([10]; Malate dehydrogenase and diaphorase, absence of malate, 8 h): 2.24 | Formation of formazan dyes, absorbance, Means 10 h ([10]; Malate dehydrogenase and diaphorase, absence of malate, 10 h): 2.33 | Formation of formazan dyes, absorbance, Means 12 h ([10]; Malate dehydrogenase and diaphorase, absence of malate, 12 h): 2.33 | reduction of tetrazolium dye in the absence of substrate malate ([10]; malate dehydrogenase and diaphorase (TABLE 9)): partially reduced | Formation of formazan dyes, absorbance, Means 0 h (diaphorase [11]; 0 h): 2.81 | Formation of formazan dyes, absorbance, Means 1 h (diaphorase [11]; 1 h): 2.81 | Formation of formazan dyes, absorbance, Means 2 h (diaphorase [11]; 2 h): 2.79 | Formation of formazan dyes, absorbance, Means 3 h (diaphorase [11]; 3 h): 2.78 | Formation of formazan dyes, absorbance, Means 4 h (diaphorase [11]; 4 h): 2.86 | Formation of formazan dyes, absorbance, Means 6 h (diaphorase [11]; 6 h): 2.83 | Formation of formazan dyes, absorbance, Means 8 h (diaphorase [11]; 8 h): 2.77 | Formation of formazan dyes, absorbance, Means 10 h (diaphorase [11]; 10 h): 2.74 | Formation of formazan dyes, absorbance, Means 12 h (diaphorase [11]; 12 h): 2.66 | Absorbance, formation of formazan dyes (Means) [12]: 0.33 and 0.45 and 0.48 and 0.55 | Absorbance, formation of formazan dyes (Means) [13]: 2.12 and 2.14 and 2.18 and 2.22 | Formation of formazan dyes, absorbance, Means 0 h ([14]; Malate dehydrogenase, diaphorase and malate, 0 h): 0.75 | Formation of formazan dyes, absorbance, Means 1 h ([14]; Malate dehydrogenase, diaphorase and malate, 1 h): 1.32 | Formation of formazan dyes, absorbance, Means 2 h ([14]; Malate dehydrogenase, diaphorase and malate, 2 h): 1.67 | Formation of formazan dyes, absorbance, Means 3 h ([14]; Malate dehydrogenase, diaphorase and malate, 3 h): 1.93 | Formation of formazan dyes, absorbance, Means 4 h ([14]; Malate dehydrogenase, diaphorase and malate, 4 h): 2.04 | Formation of formazan dyes, absorbance, Means 6 h ([14]; Malate dehydrogenase, diaphorase and malate, 6 h): 2.20 | Formation of formazan dyes, absorbance, Means 8 h ([14]; Malate dehydrogenase, diaphorase and malate, 8 h): 2.34 | Formation of formazan dyes, absorbance, Means 10 h ([14]; Malate dehydrogenase, diaphorase and malate, 10 h): 2.49 | Formation of formazan dyes, absorbance, Means 12 h ([14]; Malate dehydrogenase, diaphorase and malate, 12 h): 2.60 | conversion to reduced formazan dyes ([14]; malate dehydrogenase, diaphorase and malate (TABLE 10), disodium salt): converted to reduced formazan dyes in a time-dependent fashion; also recorded: able to catalyze the reduction
